pIC50, pKd: −log10 of the molar value. Like-named read-outs stand apart in the source and are kept apart here.
Experiments:
[1] = biological target: T1, Argininosuccinate synthase (ASS1) (Homo sapiens, UniProt P00966); test: SPR (BIAcore X100); also LC-MS/MS of Cys97 adduct, competition with Biotin-SPA, enzyme activation (AC50 […]); type: binding
T1 construct: recombinant human ASS1, N-terminal 6×His tag (pET28a), NM_000050
T1 sequence (P00966 1-412): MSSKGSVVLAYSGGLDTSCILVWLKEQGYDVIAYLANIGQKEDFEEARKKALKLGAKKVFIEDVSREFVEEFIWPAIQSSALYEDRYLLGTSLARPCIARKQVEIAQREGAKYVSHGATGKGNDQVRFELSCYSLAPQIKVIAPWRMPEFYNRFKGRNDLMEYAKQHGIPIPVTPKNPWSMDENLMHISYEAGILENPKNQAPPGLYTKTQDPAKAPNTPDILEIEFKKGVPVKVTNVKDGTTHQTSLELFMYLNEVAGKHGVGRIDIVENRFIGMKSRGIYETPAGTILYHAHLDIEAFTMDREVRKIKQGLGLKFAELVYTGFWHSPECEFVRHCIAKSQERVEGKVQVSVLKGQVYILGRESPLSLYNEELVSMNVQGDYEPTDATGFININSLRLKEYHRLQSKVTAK

184B5 = test: in vitro; set-up: crystal violet staining viability/proliferation assay, IC50 (SPSS), LM-2I on breast cancer and normal breast epithelial lines; settings: mean of 3 repeats; given as IC50; inhibitor
Protocol: (§1) Fig. 1 SPA and its derivative LM-2I inhibit breast cancer proliferation and growth. a Chemical structures of SPA (1). b Crystal violet assay for the effects of SPA on breast cancer cell proliferation. IC50 values were calculated with SPSS 18.0 (mean ± s.d., n = 3 biologically independent experiments). c Representative microscope images of colony formation for different breast cancer cell lines treated with SPA. Scale bars are 40 µM. d Chemical structures of LM-2I (2). e Crystal violet assay for the effects of LM-2I on breast cancer cell proliferation. IC50 values were calculated with SPSS 18.0 (mean ± s.d., n = 3 biologically independent experiments). f Representative microscope images of colony formation for different breast cancer cell lines treated with LM-2I. Scale bars are 40 µM. MDA-MB-231 cells were inoculated subcutaneously into the right flank of nu/nu female mice. When the average tumor size reached about 100 mm^3, mice were treated with ether vehicle, SPA (10 mg/kg/day) or LM-2I (5 mg/kg/day). Tumor sizes (g) and mouse body weight (i) were measured every 2 days. 28 days later, mice were sacrificed and tumors were dissected and weighted (h). Data represent mean ± s.d. (n = 8 mice per group). *P < 0.05, ***P < 0.001, NS: not significant (P > 0.05) from two-tailed unpaired Student’s t tests.Source data are provided as a Source Data file. […]

in vitro = test: in vitro; set-up: crystal violet staining viability/proliferation assay, IC50 (SPSS), LM-2I on breast cancer and normal breast epithelial lines; settings: human, Mean; mean of 3 repeats; given as IC50
Protocol: as §1

[2] = biological target: T1, Argininosuccinate synthase (ASS1); test: SPR (BIAcore X100); also LC-MS/MS of Cys97 adduct, competition with Biotin-SPA, enzyme activation (AC50 […]); type: binding; remark: listed apart in the source
MDA-MB-231 = test: cells; set-up: crystal violet staining viability/proliferation assay, IC50 (SPSS), LM-2I on breast cancer and normal breast epithelial lines; settings: Homo sapiens, MDA-MB-231; mean of 3 repeats
Protocol: (§2) Fig. 1 SPA and its derivative LM-2I inhibit breast cancer proliferation and growth. a Chemical structures of SPA (1). b Crystal violet assay for the effects of SPA on breast cancer cell proliferation. IC50 values were calculated with SPSS 18.0 (mean ± s.d., n = 3 biologically independent experiments). c Representative microscope images of colony formation for different breast cancer cell lines treated with SPA. Scale bars are […]. d Chemical structures of LM-2I (2). e Crystal violet assay for the effects of LM-2I on breast cancer cell proliferation. IC50 values were calculated with SPSS 18.0 (mean ± s.d., n = 3 biologically independent experiments). f Representative microscope images of colony formation for different breast cancer cell lines treated with LM-2I. Scale bars are […]. MDA-MB-231 cells were inoculated subcutaneously into the right flank of nu/nu female mice. When the average tumor size reached about 100 mm^3, mice were treated with ether vehicle, SPA (10 mg/kg/day) or LM-2I (5 mg/kg/day). Tumor sizes (g) and mouse body weight (i) were measured every 2 days. 28 days later, mice were sacrificed and tumors were dissected and weighted (h). Data represent mean ± s.d. (n = 8 mice per group). *P < 0.05, ***P < 0.001, NS: not significant (P > 0.05) from two-tailed unpaired Student’s t tests.Source data are provided as a Source Data file. All cell lines were purchased from American Type Culture Collection (ATCC, Manassas, VA, USA). The human breast cancer (BC) cell lines BT549, BT474 and T47D were maintained in RPMI 1640 containing 10% (v/v) fetal bovine serum (FBS, Gibco), 0.01 mg/mL insulin and 100 units/mL penicillin/streptomycin (HyClone). SKBR3, Hs578T, and BT20 human BC cell lines were cultured in DMEM medium with 10% (v/v) FBS and 100 units/mL penicillin/streptomycin. HCC1500, HCC1806, and HCC1937 human BC cell lines were cultured in RPMI 1640 medium supplement with 10% (v/v) FBS and 100 units/mL penicillin/streptomycin. MDA-MB-231 human BC cell line was cultured in DMEM/F12 (1: 1) medium with 10% (v/v) FBS and 100 units/mL penicillin/streptomycin. MDA-MB-468 human BC cell line was cultured in DMEM (high glucose) medium with 10% (v/v) FBS and 100 units/mL penicillin/streptomycin. MCF-7 human BC cell line was cultured in EMEM medium with 10% (v/v) FBS, 0.01 mg/mL insulin and 100 units/mL penicillin/streptomycin. […] All of the cells cultured in a humidified incubator at 37 °C and 5% CO2/95% air (v/v).

BT474 = test: cells; set-up: crystal violet staining viability/proliferation assay, IC50 (SPSS), LM-2I on breast cancer and normal breast epithelial lines; settings: Homo sapiens, BT-474; mean of 3 repeats
Protocol: as §2

HS578T = test: cells; set-up: crystal violet staining viability/proliferation assay, IC50 (SPSS), LM-2I on breast cancer and normal breast epithelial lines; settings: Homo sapiens, Hs-578T; mean of 3 repeats
Protocol: as §2

BT20 = test: cells; set-up: crystal violet staining viability/proliferation assay, IC50 (SPSS), LM-2I on breast cancer and normal breast epithelial lines; settings: Homo sapiens, BT-20; mean of 3 repeats
Protocol: as §2

BT549 = test: cells; set-up: crystal violet staining viability/proliferation assay, IC50 (SPSS), LM-2I on breast cancer and normal breast epithelial lines; settings: Homo sapiens, BT-549; mean of 3 repeats
Protocol: as §2

T47D = test: cells; set-up: crystal violet staining viability/proliferation assay, IC50 (SPSS), LM-2I on breast cancer and normal breast epithelial lines; settings: Homo sapiens, T47D; mean of 3 repeats
Protocol: as §2

HCC1500 = test: cells; set-up: crystal violet staining viability/proliferation assay, IC50 (SPSS), LM-2I on breast cancer and normal breast epithelial lines; settings: HCC1500; mean of 3 repeats
Protocol: as §2

HCC1937 = test: cells; set-up: crystal violet staining viability/proliferation assay, IC50 (SPSS), LM-2I on breast cancer and normal breast epithelial lines; settings: Homo sapiens, HCC1937; mean of 3 repeats
Protocol: as §2

HCC1806 = test: cells; set-up: crystal violet staining viability/proliferation assay, IC50 (SPSS), LM-2I on breast cancer and normal breast epithelial lines; settings: Homo sapiens, HCC1806; mean of 3 repeats
Protocol: as §2

MCF-7 = test: cells; set-up: crystal violet staining viability/proliferation assay, IC50 (SPSS), LM-2I on breast cancer and normal breast epithelial lines; settings: Homo sapiens, MCF7; mean of 3 repeats
Protocol: as §2

MDA-MB-468 = test: cells; set-up: crystal violet staining viability/proliferation assay, IC50 (SPSS), LM-2I on breast cancer and normal breast epithelial lines; settings: Homo sapiens, MDA-MB-468; mean of 3 repeats
Protocol: as §2

SKBR3 = test: cells; set-up: crystal violet staining viability/proliferation assay, IC50 (SPSS), LM-2I on breast cancer and normal breast epithelial lines; settings: Homo sapiens, SK-BR-3; mean of 3 repeats
Protocol: as §2

[3] = biological target: T1, Argininosuccinate synthase (ASS1); test: covalent labelling kinetics by streptavidin-HRP blot (kinact […] min^-1); pull-down from MCF-7 lysate; type: binding; settings: read-out: Ki

Structure (SMILES): CC[C@H]1CCC[C@H](O[C@H]2CC[C@H](N(C)C)[C@@H](C)O2)[C@@H](C)C(=O)C2=C[C@@H]3[C@@H](C=C[C@@H]4C[C@@H](O[C@@H]5O[C@@H](C)[C@H](OC)[C@@H](OC)[C@H]5OC)C[C@@H]34)[C@@H]2CC(=O)O1 [compound 1, spinosyn A]
- pKd [1]: 6.45

Structure (SMILES): CC[C@H]1CCC[C@H](O[C@H]2CC[C@H](N(C)CC(O)CN3CCNCC3)[C@@H](C)O2)[C@@H](C)C(=O)C2=C[C@@H]3[C@@H](C=C[C@@H]4C[C@@H](O[C@@H]5O[C@@H](C)[C@H](OC)[C@@H](OC)[C@H]5OC)C[C@@H]34)[C@@H]2CC(=O)O1 (some centres unmarked) [compound 2, LM-2I]
- CC50 (184B5): 7.89 µM
- CC50 (in vitro): 8.52 µM
- pKd [2]: 6.71
- pIC50 (MDA-MB-231): 5.96
- pIC50 (BT474): 5.21
- pIC50 (HS578T): 5.76
- pIC50 (BT20): 5.09
- pIC50 (BT549): 5.82
- pIC50 (T47D): 5.23
- pIC50 (HCC1500): 5.00
- pIC50 (HCC1937): 5.12
- pIC50 (HCC1806): 5.67
- pIC50 (MCF-7): 5.23
- pIC50 (MDA-MB-468): 5.29
- pIC50 (SKBR3): 5.29

Structure (SMILES): CC[C@H]1CCC[C@H](O[C@H]2CC[C@H](N(C)CCCCCCOC(=O)CCCC[C@@H]3SC[C@@H]4NC(=O)N[C@@H]43)[C@@H](C)O2)[C@@H](C)C(=O)C2=C[C@@H]3[C@@H](C=C[C@@H]4C[C@@H](O[C@@H]5O[C@@H](C)[C@H](OC)[C@@H](OC)[C@H]5OC)C[C@@H]34)[C@@H]2CC(=O)O1 [compound 4, Biotin-SPA]
- KI (inactivation) [3]: 9.01 µM
